Laboratory results reported in article PMC10726354, “Design, Synthesis, and Biological Evaluation of Small-Molecule-Based Radioligands with Improved Pharmacokinetic Properties for Imaging of Programmed Death Ligand 1” (Journal of Medicinal Chemistry, 2023).
Values joined by “and” are separate entries in the source; they are usually repeats but may differ in a detail not shown here. Identical values can stand only once. “Also recorded” adds a separate entry of the source.

Columns and labels:
[1] = target: T1, PD-L1 (Homo sapiens, UniProt Q9NZQ7); test: Real-time radioligand binding (LigandTracer) on PC3 PD-L1 cells; conditions: for Kd: real-time binding
T1 construct: expressed in transfected cells; host or cells: PC3 cells (human prostate carcinoma), stably transduced
Procedure: Real-time radioligand binding using the ligand tracer platform was performed, similar to our previously reported tracer candidates. As we aimed at reducing the albumin binding of the herein presented compounds, we performed measurements in the presence or absence of a mouse physiological concentration of BSA (2.5 g/dL).
For real-time binding to assess kinetics (association rate constant ka and dissociation rate constant kd) and dissociation constant (KD), LigandTracer (Yellow, Ridgeview Instruments AB, Sweden) was employed. Approximately 1.2 × 10^6 cells (in 3 mL medium) were seeded to one side of a Petri dish (Nunc) 1 day prior to experiments as described before.[45] Binding was then performed at room temperature (using CO2-independent medium, Gibco #18045088, Thermo Fisher Germany) with or without BSA (2.5%). First, association was determined by incubation with two concentrations (10 and 40 nM, 90 min each) of the ^64Cu-labeled PD-L1 ligands. Dissociation was then assessed by replacement with fresh medium for at least 2 h. Data were acquired in decay-corrected counts per second (CPS), and binding data were then evaluated using TraceDrawer (1.9.2, Ridgeview Instruments AB, Sweden). Traces were inspected for spikes and irregularities and then normalized to their own baseline (=0%) and highest value (=100%). Data were then fitted using a one-to-one interaction, accounting for the bulk effect.

[2] = system: PC3 mock tumor; test: Small-animal PET, uptake in mock tumor; conditions: for SUVmax PC3 mock tumor: tracer only; for SUVmax PC3 mock tumor +block: blocker i.v. before tracer: Cu-1 100 nmol 1, Cu-2 100 nmol 2, Cu-3 1000 nmol 4, Cu-4 500 nmol 4, Cu-6 250 nmol 1 (~5 min prior), Cu-5 100 nmol 5 (~30 min prior)
Procedure: (§1) Changes are reported as % change of the SUVmax of the PD-L1 expressing over the respective value of the mock tumor. Similarly, the effect of blocking is reported as % change of the SUVmax of the animal injected with cold compound over that of the animal that received tracer only.
(§2) Animal experiments were performed in accordance with the guidelines of the German Regulations for Animal Welfare, approved by the Saxonian Ethical Committee for Animal Experiments (reference number DD24.1-5131/449/49). Male athymic NMRI-nude mice (Rj: NMRI-Foxn1^nu/nu, Janvier Laboratories, Le Genest-Saint-Isle, France) between 8 and 22 weeks of age were used. Under general anesthesia, [∼10% desflurane (Baxter, Deerfield, IL, USA) in 30 vol % oxygen + air] and warming, the animals were subcutaneously injected with 3–5 × 10^6 PC3-PD-L1 and PC3-mock cells [in 50 μL PBS +50 μL Matrigel (Corning, Glendale, USA)] into the right and left thigh, respectively. Tumor growth was monitored three times a week by caliper measurements, and mice with tumor sizes above 7 mm were included in the experiments.
(§3) For PET studies, general anesthesia was induced as described above. PET and X-ray computed tomography (CT) were performed in a dedicated small animal nanoScan PET/CT scanner, with four animals imaged simultaneously (Mediso, Budapest, Hungary). CT images were employed for attenuation correction and anatomical referencing. Animals received three individual scans corresponding to 0–2 h (dynamic) and 4.5 and 24 h (static) postinjection.
(§4) PD-L1 radiotracer candidates (in 300 μL sterile 0.9% NaCl/HEPES buffer, pH 6–7, between 7 and 12 MBq, molar activities > 12 GBq/μmol) were delivered over 30 s i.v. (lateral tail vein) and PET acquisition started simultaneously. For blocking condition, a defined quantity of compound (the same unlabeled compound, one from the same series or BMS-1166) was diluted in sterile saline and injected i.v. approximately 5 min prior to the radiotracer. Animals not subjected to blocking were injected with vehicle at the same time.
(§5) Three-dimensional list mode data were binned using the 400–600 keV energy window and sorted into 36 time frames (15 × 10 s, 5 × 30 s, 5 × 60 s, 4 × 300 s, 3 × 600 s, 4 × 900 s). Time frames were reconstructed using the Tera-TomoTM 3D algorithm applying a voxel size of 0.4 mm and corrections for decay, scatter, and attenuation.
(§6) Three-dimensional volumes of interest were delineated applying fixed thresholding at 35% of the measured maximum intensity. Standardized uptake values (SUV = [MBq detected activity/mL tissue]/[MBq injected activity/g body weight], […]) were determined in selected volumes of interest, among these PD-L1 and mock tumors.
(§7) 14. In vivo: PET- SUV data
(§8) Standardized uptake values (SUVmax)
(§9) Supplementary table 1: In vivo standardized uptake values (SUVmax ± standard deviation) of 64Cu-labeled third series compounds [64Cu]Cu-1-6 at 1.5 (1–2), 4.5 (4–5) and 24.5 (24–25) hours
(§10) post injection (p.i.). Compounds used for blocking are described for each tracer and were intravenously injected in sterile saline at stated time before the radiotracer. Animals designated for
(§11) tracer-only received matched type and volume of vehicle at the same time.

[3] = system: PC3 PD-L1-overexpressing tumor; test: Small-animal PET, uptake in PD-L1-overexpressing tumor; conditions: for SUVmax PC3 PD-L1 overexpressing tumor: tracer only; for SUVmax PC3 PD-L1 overexpressing tumor +block: blocker i.v. before tracer: Cu-1 100 nmol 1, Cu-2 100 nmol 2, Cu-3 1000 nmol 4, Cu-4 500 nmol 4, Cu-6 250 nmol 1 (~5 min prior), Cu-5 100 nmol 5 (~30 min prior)
Procedure: as §1, §2, §3, §4, §5, §6, §7, §8, §9, §10, §11

[4] = Radiotracer production data: stability of the product to in vivo experiments; type: physicochemical
[5] = Small-animal PET, excretion pattern; type: in vivo, mouse; conditions: PET 0–2, 4–5 and 24–25 h p.i., i.v.
Procedure: Time points of PET imaging were 0–2, 4–5, and 24–25 h post injection (p.i.).

[6] = medium only (no BSA), n = 2, mean ± S.D.
[7] = medium only (no BSA), n = 2, mean ± S.D., room temperature

T1 sequence (Q9NZQ7 19-290): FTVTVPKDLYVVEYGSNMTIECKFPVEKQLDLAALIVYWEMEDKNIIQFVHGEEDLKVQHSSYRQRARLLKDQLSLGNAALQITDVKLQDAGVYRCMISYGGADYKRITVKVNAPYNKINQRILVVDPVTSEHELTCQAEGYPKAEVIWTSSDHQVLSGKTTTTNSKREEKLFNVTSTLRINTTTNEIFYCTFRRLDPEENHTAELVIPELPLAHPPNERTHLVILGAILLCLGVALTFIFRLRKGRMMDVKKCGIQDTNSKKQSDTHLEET

Row | Structure (SMILES) | Bmax [normalized (%)] ([1]; medium + 2.5% BSA, n = 1) | ka (association rate constant) ([1]; medium + 2.5% BSA, n = 1) | Bmax [normalized (%)] [1, 6] | ka (association rate constant) [1, 7] | Kd ([1]; medium + 2.5% BSA, n = 1) | Kd [1, 6] | SUVmax PC3 mock tumor ([2]; 1.5 (1–2) hours p.i.) | SUVmax PC3 mock tumor +block ([2]; 1.5 (1–2) hours p.i.) | SUVmax PC3 mock tumor ([2]; 4.5 (4–5) hours p.i.) | SUVmax PC3 mock tumor +block ([2]; 4.5 (4–5) hours p.i.) | SUVmax PC3 mock tumor ([2]; 24.5 (24–25) hours p.i.) | SUVmax PC3 mock tumor +block ([2]; 24.5 (24–25) hours p.i.) | SUVmax PC3 PD-L1 overexpressing tumor ([3]; 1.5 (1–2) hours p.i.) | SUVmax PC3 PD-L1 overexpressing tumor +block ([3]; 1.5 (1–2) hours p.i.) | SUVmax PC3 PD-L1 overexpressing tumor ([3]; 4.5 (4–5) hours p.i.) | SUVmax PC3 PD-L1 overexpressing tumor +block ([3]; 4.5 (4–5) hours p.i.) | SUVmax PC3 PD-L1 overexpressing tumor ([3]; 24.5 (24–25) hours p.i.) | SUVmax PC3 PD-L1 overexpressing tumor +block ([3]; 24.5 (24–25) hours p.i.) | Stability of the product to in vivo experiments [4] | excretion / clearance pattern (PET) [5] | also measured
1 | Cc1c(COc2cc(OCc3cncc(S(C)(=O)=O)c3)c(CN[C@@H](CS(=O)(=O)O)C(=O)NCCP(=O)(O)O)cc2Cl)cccc1-c1cccc(OCc2cn(CCCN3CCN(C(=O)CC[C@H](C(=O)O)N4CCN(CC(=O)O)CCN(CC(=O)O)CC4)CC3)nn2)c1C.[64Cu+2] [[^64Cu]Cu-4] | 883% | 230 M/s | 846 ± 451% | (0.56 ± 0.35) × 10^3 (M s)^−1 | 0.744 µM | 0.201 ± 0.149 µM | 0.8 ± 0.10 | 0.65 ± 0.05 | 0.45 ± 0.05 | 0.6 ± 0.2 | 1.25 ± 0.15 | 0.8 ± 0.3 | 1.97 ± 0.23 | 0.85 ± 0.05 | 1.2 ± 0.4 | 1.05 ± 0.35 | 2.0 ± 0.1 | 1.1 ± 0.1 | > 99% | almost exclusive hepatobiliary elimination; also recorded: primarily hepatobiliary clearance | blocking effect: % change of SUVmax in PD-L1 tumor vs tracer-only ([3]; 1–2 h (1.5 h) p.i., blocker: Cu-3 1000 nmol 4, Cu-4 500/1000 nmol 4, Cu-5 100 nmol 5, Cu-6 250 nmol BMS-1166): −57%; % change of SUVmax of the PD-L1 expressing tumor over the mock tumor ([3]; 1–2 h p.i.): 146%; blocking effect: % change of SUVmax in PD-L1 tumor vs tracer-only ([3]; 4–5 h (4.5 h) p.i., blocker: Cu-3 1000 nmol 4, Cu-4 500/1000 nmol 4, Cu-5 100 nmol 5, Cu-6 250 nmol BMS-1166): −13% and −12%; % change of SUVmax of the PD-L1 expressing tumor over the mock tumor ([3]; 4–5 h p.i.): 166%; blocking effect: % change of SUVmax in PD-L1 tumor vs tracer-only ([3]; 24–25 h (24.5 h) p.i., blocker: Cu-1, Cu-2 100 nmol unlabeled compound, Cu-3 1000 nmol 4, Cu-4 500/1000 nmol 4, Cu-5 100 nmol 5, Cu-6 250 nmol BMS-1166): −45%; % change of SUVmax of the PD-L1 expressing tumor over the mock tumor ([3]; 24–25 h p.i.): 60%
2 | Cc1c(COc2cc(OCc3cncc(C#N)c3)c(CN[C@@H](CS(=O)(=O)O)C(=O)NCCS(=O)(=O)O)cc2Cl)cccc1-c1cccc(OCc2cn(CCCN3CCN(C(=O)[C@H](CS(=O)(=O)O)NC(=O)CC[C@H](C(=O)O)N4CCN(CC(=O)O)CCN(CC(=O)O)CC4)CC3)nn2)c1C.[64Cu+2] [[^64Cu]Cu-1] | 76.2% | 1410 M/s | 186 ± 40.2% | (2.85 ± 0.07) × 10^3 (M s)^−1 | 0.119 µM | 0.06 µM and 0.0602 µM | 1.0 | 1.4 | 0.8 | 1.0 | 1.2 | 0.7 | 1–1.5 | 1.3 | 1.1 | 1.0 | 1.4 | 1.1 | > 99% | mixed hepatobiliary and renal clearance | fold change of real-time binding affinity in presence vs absence of BSA ([1]; in either direction): ≤ 2 fold; blocking effect on SUVmax in the mock tumor ([2]; 24–25 h p.i., blocker: Cu-1, Cu-2 100 nmol unlabeled compound, Cu-3 1000 nmol 4): −41 to −54%; SUVmax PC3 PD-L1 overexpressing tumor ([3]; 1.5 (1–2) hours p.i., listed as [64Cu]Cu-1): 1.5
